Assay results reported in patent publication US20100040710A1, “Stimulation of the synthesis and of the activity of an isoform of lysyl oxidase-like LOXL for stimulating the formation of elastic fibers” (BASF Beauty Care Solutions France SAS, priority 2003, published 2010).
Marks after values point to notes of the source that are not given here.

What was measured:
Type in all cases: cell-based, human
LOX mRNA [1] = test: Screening of active principles by qualitative RT-PCR: LOX mRNA expression in fibroblasts; conditions: actives at 1% (v/v), 24 hours, fibroblasts of the abdomen of mature age adult (donor), mRNA vs actin and negative control
Description: (§1) The active principles were tested at 1% (v/v) on fibroblasts of normal human skin (originating from the foreskin of the infant or originating from the adult). The culture was carried out, e.g. in a monolayer on 24-well culture plates, in a defined medium without serum (Fibroblast Basal Medium). The cells were sown, e.g. at 40,000 per cm^2. At the confluence, the cells are placed in contact with the actives advantageously for 24 hours. In parallel, a non-treated control (medium alone) and three positive controls (TGF-β at 1 ng/ml, IL-1α at […] and Phytokine® (Coletica, Lyons, France) at 2% (v/v)) are advantageously carried out, e.g. on the same culture plate.
(§2) The TGF-β at 1 ng/ml and the IL-1α at 50 pg/ml were tested beforehand and the stimulation of the synthesis of elastin mRNA induced by these two cytokines at these concentrations was verified by an analysis of the mRNAs, e.g. by quantitative RT-PCR (×10 for TGF-β and x6 for IL-1 alpha). After the time of placing the actives in contact with the cells, e.g. 24 hours, the media are removed and the cells are preserved e.g. by dry freezing at −80° C. after a rinsing in phosphate buffer pH 7.4. The total RNAs are extracted e.g. with the aid of an extraction kit of 96 wells on silica columns and were determined on a 96-well spectrophotometer at 260 nm (purity indicator: protein determination at 280 nm). The RNAs are diluted e.g. to 5 ng/μl. The qualitative RT-PCR in 1 step is carried out e.g. on 50 ng of initial RNA on a 96-well plate, on the genes of actin, elastin, of LOX and of LOXL. The specific primers of each gene are used e.g. at 0.5 μM: […]
(§3) The amplification parameters were advantageously the following 48° C., 30 min; 94° C., 2 min; (94° C., 30 seconds; 60° C., 30 seconds; 68° C., 30 seconds) 28 cycles for actin, 30 cycles for LOXL, 32 cycles for LOX, or 34 cycles for elastin; 68° C., 10 min; 14° C., infinity. […] The photographs of the gels were analyzed by image analysis and quantification of the intensity of the bands (Phoretix1D, France). […]

elastin mRNA [2] = test: Real time RT-PCR effectiveness study: elastin mRNA in adult fibroblasts; conditions: 24 hours, adult abdomen fibroblasts (donor)
Description: (§4) […] The culture was carried out e.g. in monolayer in 24-well plates, in a defined medium without serum (Fibroblast Basal Medium). The cells are sown e.g. at 40,000 per cm^2. After the time of placing the actives in contact with the cells (24 hours), the media were removed and the cells were preserved e.g. by dry freezing at −80° C. after a rinsing with phosphate buffer at pH 7.4. At the end of experimentation, the content of mRNA of elastin, of LOXL and of actin is evaluated by an mRNA analysis technique, e.g. by real time RT-PCR. For this, the couples of primers enabling the amplification of specific fragments of these genes are those described above (Example 10).
(§5) After extraction e.g. with the aid of an extraction kit in 96-wells on silica columns and determination on a 96-well spectrophotometer at 260 nm, the RNAs are diluted e.g. to 5 ng/μl. The RT-PCR reactions ([…]) were carried out by quantitative real time RT-PCR with the aid of the “Opticon” system (MJ Research). Advantageously, the reaction mixture (50 μl) introduced into the wells was the following, for each sample: • 10 μl of RNA at a concentration of 5 ng/μl, • The specific primers of the various labels sought after, • Reaction mixture (Qiagen−25 μl 2×QuantiTect SYBR Green RT-PCR master mix containing 5 mM MgCl2+0.5 μl QuantITect RT mix), the label SYBR Green I inserting in the DNA double strands during the elongation step. The RT-PCR Conditions were Advantageously the Following: Reverse Transcription: 30 minutes at 50° C., then 15 minutes at 95° C., PCR reactions: [15 seconds at 94° C., 30 seconds at 60° C. and 30 seconds at 72° C.], 50 cycles.
(§6) The absence of contamination and the purity of the amplified products were verified e.g. via the fusion curves of the amplified PCR products. The products presenting a double peak or an abnormal fusion temperature were eliminated.
(§7) The incorporation of fluorescence in the amplified DNA was evaluated continuously during the PCR cycles. This system enabled obtaining curves of fluorescence measurement as a function of the number of PCR cycles and thus enabled evaluating a relative amount of amplified DNA.
(§8) In order to take account of the cell population present, all the results were compared to the <> signal, which was used as housekeeping gene. According to the experimentation, the threshold of measurement of the C(T) (=Cycle Threshold) was fixed for T between 0.05 and 0.01, and then an arbitrary measurement unit is calculated for each gene according to the formula:
(§9) Sgene<=10^7×(1/2)^C(T)gene<>
(§10) C (T)gene <> signifying the number of cycles necessary to attain the cycle threshold of 0.01-0.05 of the gene <>.
(§11) The values of the genes of interest were compared to the <> signal by calculation of the ratio: […]

LOX mRNA [3] = test: Real time RT-PCR effectiveness study: LOX mRNA in adult fibroblasts; conditions: 24 hours, adult abdomen fibroblasts (donor)
LOXL mRNA [4] = test: Real time RT-PCR effectiveness study: LOXL mRNA in adult fibroblasts; conditions: 24 hours, adult abdomen fibroblasts (donor)
Description: as §4, §5, §6, §7, §8, §9, §10, §11

elastin (Eln) mRNA = test: Screening of active principles by qualitative RT-PCR: elastin mRNA expression in fibroblasts; conditions: actives at 1% (v/v), 24 hours, fibroblasts of the abdomen of mature age adult (donor), mRNA vs actin and negative control
Description: as §1, §2, §3

LOXL mRNA [5] = test: Screening of active principles by qualitative RT-PCR: LOXL mRNA expression in fibroblasts; conditions: actives at 1% (v/v), 24 hours, fibroblasts of the abdomen of mature age adult (donor), mRNA vs actin and negative control
Description: as §1, §2, §3

elastin mRNA [6] = test: Positive controls: stimulation of elastin mRNA synthesis by quantitative RT-PCR; conditions: 1 ng/ml, fold (×)
Description: as §1
as §2, with “nm).” for “nm). The RNAs are diluted e.g. to 5 ng/μl. The qualitative RT-PCR in 1 step is carried out e.g. on 50 ng of initial RNA on a 96-well plate, on the genes of actin, elastin, of LOX and of LOXL. The specific primers of each gene are used e.g. at 0.5 μM:”

For `CCCC(=O)OC` [methyl butyrate], the “LOX Control multiplied by:” value (LOX mRNA [1]) was 5.08, the “El Control multiplied by:” value (elastin mRNA [2]; active at 0.01%) was 0.92 and the “El Control multiplied by:” value (elastin mRNA [2]; active at 0.1%) was 0.96. The “El Control multiplied by:” value (elastin mRNA [2]; active at 1%) was 1.25, the “El Control multiplied by:” value (elastin mRNA [2]; active at 5%) was 1.70* and the “LOX Control multiplied by:” value (LOX mRNA [3]; active at 0.01%) was 1.04. For the same molecule, the “LOX Control multiplied by:” value (LOX mRNA [3]; active at 0.1%) was 1.76*, the “LOX Control multiplied by:” value (LOX mRNA [3]; active at 1%) was 2.17* and the “LOX Control multiplied by:” value (LOX mRNA [3]; active at 5%) was 0.91. The “LOXL Control multiplied by:” value (LOXL mRNA [4]; active at 0.01%) was 0.89, the “LOXL Control multiplied by:” value (LOXL mRNA [4]; active at 0.1%) was 1.56 and the “LOXL Control multiplied by:” value (LOXL mRNA [4]; active at 1%) was 2.10*. For the same molecule, the “LOXL Control multiplied by:” value (LOXL mRNA [4]; active at 5%) was 0.91, the “Eln Control multiplied by:” value (elastin (Eln) mRNA) was 1.43 and the “LOXL Control multiplied by:” value (LOXL mRNA [5]) was 3.24.
For ethyl hexenoate, the “LOX Control multiplied by:” value (LOX mRNA [1]) was 3.09, the “Eln Control multiplied by:” value (elastin (Eln) mRNA) was 1.5 and the “LOXL Control multiplied by:” value (LOXL mRNA [5]) was 2.33.
In the case of TGF-β, the “stimulation of the synthesis of elastin mRNA” value (elastin mRNA [6]) is reported as 10.
ethyl decadienoate was tested, and the “LOX Control multiplied by:” value (LOX mRNA [1]) was 3.64, the “Eln Control multiplied by:” value (elastin (Eln) mRNA) was 2.04 and the “LOXL Control multiplied by:” value (LOXL mRNA [5]) was 2.32.
